Activity calls are given as the source filed them.
Experiments:
[1] = target: Metabotropic glutamate receptor 4 (Rattus norvegicus, UniProt P31423); assay: Modulation of the Metabotropic Glutamate Receptor mGluR4: Rat PAM Potency. [Related pubchem assays (depositor defined):AID2437, AID2807]; type: functional
[2] = target: Envelope glycoprotein gp160 (Human immunodeficiency virus 1, UniProt Q6QLK5); assay: inhibitors of HIV fusion peptide binding, primary screen, biochemical, uHTS, fluorescence dequenching (AID 1986)
Vero = Vero cell cytotoxicity, cytotoxicity control for flavivirus capping enzyme inhibitors (AID 588742); type: functional; conditions: Chlorocebus sabaeus
Genome polyprotein = Genome polyprotein (dengue virus type 2, UniProt P29990); assay: Dengue-2 NS5 methyltransferase inhibitors, primary screen, biochemical, confirmation dose response (AID 588689); type: functional
[3] = target: T1, Carboxy-terminal domain RNA polymerase II polypeptide A small phosphatase 1 (Homo sapiens, UniProt Q9GZU7); assay: inhibitors of CTDSP1, concentration-response testing, biochemical assay, absorbance-based, actives from ultra-high-throughput screening (AID 540297); type: functional
T1 sequence (Q9GZU7 whole entry): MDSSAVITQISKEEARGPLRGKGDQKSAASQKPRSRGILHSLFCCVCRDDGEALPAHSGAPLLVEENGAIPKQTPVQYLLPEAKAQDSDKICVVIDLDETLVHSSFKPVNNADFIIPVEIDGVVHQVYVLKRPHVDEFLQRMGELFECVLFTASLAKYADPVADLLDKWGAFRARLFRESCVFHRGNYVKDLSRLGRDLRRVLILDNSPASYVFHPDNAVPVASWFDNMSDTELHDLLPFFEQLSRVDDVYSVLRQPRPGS

[4] = target: T2, Low molecular weight phosphotyrosine protein phosphatase (Homo sapiens, UniProt P24666); type: functional; conditions: read-out: IC50_Mean
T2 sequence (P24666 whole entry): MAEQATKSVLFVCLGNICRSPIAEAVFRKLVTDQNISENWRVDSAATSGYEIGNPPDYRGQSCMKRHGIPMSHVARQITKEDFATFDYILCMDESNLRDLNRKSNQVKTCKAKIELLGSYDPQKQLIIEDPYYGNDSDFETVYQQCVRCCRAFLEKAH

[5] = target: T2, Low molecular weight phosphotyrosine protein phosphatase; type: functional; conditions: read-out: IC50_Mean; remark: listed apart in the source
[6] = target: T3, Tyrosine-protein phosphatase non-receptor type 22 (Homo sapiens, UniProt Q9Y2R2); assay: LYP phosphatase inhibition for selectivity, dose response, selectivity assay for LMPTP inhibitor project, biochemical, fluorescence, LYP catalytic domain (AID 652006); type: functional; conditions: read-out: IC50_Mean
T3 sequence (Q9Y2R2 whole entry): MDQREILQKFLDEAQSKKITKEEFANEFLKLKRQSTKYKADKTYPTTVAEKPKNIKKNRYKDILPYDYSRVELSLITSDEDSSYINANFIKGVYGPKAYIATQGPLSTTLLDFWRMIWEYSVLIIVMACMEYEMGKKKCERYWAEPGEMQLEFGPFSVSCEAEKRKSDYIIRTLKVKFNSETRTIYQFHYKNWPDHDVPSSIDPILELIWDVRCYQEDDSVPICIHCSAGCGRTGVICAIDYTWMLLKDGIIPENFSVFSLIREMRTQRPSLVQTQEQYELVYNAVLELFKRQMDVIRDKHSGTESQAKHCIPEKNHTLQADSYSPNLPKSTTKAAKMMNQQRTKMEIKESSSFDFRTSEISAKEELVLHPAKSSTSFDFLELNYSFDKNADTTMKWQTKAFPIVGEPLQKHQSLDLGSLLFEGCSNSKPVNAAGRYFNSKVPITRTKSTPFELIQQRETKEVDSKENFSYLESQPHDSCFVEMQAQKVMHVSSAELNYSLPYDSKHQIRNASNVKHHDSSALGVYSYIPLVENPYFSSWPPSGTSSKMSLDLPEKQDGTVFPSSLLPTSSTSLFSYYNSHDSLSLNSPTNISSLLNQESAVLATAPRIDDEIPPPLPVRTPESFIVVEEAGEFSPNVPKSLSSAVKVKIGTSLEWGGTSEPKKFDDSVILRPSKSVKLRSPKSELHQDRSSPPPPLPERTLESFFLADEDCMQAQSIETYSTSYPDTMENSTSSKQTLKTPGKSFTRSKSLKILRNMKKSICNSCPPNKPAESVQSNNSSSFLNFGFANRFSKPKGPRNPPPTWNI

cells [7] = type: functional, cell-based
cells [8] = type: functional, cell-based; remark: listed apart in the source
ORF 73 = ORF 73 (Human herpesvirus 8, UniProt O40947); assay: inhibitors of C-LANA binding to LBS DNA, dose response, biochemical, fluorescence polarization, cherry-picked samples (AID 504725); parameters: species or system Human gammaherpesvirus 8;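 further: fluorescence polarization of a labeled DNA duplex reporting LANA DNA binding; potency is for inhibitors that block LANA binding to the DNA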
[9] = cytotoxicity in HEK-293T cells, dose response, cytotoxicity control for TCR NF-kB inhibitor project, luminescence, T-cell screen hits (AID 489026); type: functional, cell-based;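 further: cells exposed to compound about 14 hours before the viability readout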
[10] = target: T4, Corticotropin-releasing factor receptor 2/Corticotropin-releasing factor-binding protein (Homo sapiens, UniProt P24387+Q13324); assay: activators of CRF receptor 2 with binding protein – uHTS hits, confirmation (AID 602473); type: functional; conditions: read-out: EC50_Mean
T4 sequence (Q13324 whole entry): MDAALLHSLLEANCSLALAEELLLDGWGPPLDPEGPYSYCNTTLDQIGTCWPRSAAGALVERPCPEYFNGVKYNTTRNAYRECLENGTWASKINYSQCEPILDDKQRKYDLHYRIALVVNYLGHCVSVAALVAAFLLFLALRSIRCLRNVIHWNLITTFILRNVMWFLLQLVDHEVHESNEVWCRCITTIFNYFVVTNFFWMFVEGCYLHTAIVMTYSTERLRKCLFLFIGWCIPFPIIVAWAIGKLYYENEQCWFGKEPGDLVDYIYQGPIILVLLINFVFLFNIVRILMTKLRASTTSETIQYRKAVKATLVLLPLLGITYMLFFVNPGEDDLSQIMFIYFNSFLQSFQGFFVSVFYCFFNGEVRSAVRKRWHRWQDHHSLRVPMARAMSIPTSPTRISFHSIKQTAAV
T4 sequence (P24387 whole entry): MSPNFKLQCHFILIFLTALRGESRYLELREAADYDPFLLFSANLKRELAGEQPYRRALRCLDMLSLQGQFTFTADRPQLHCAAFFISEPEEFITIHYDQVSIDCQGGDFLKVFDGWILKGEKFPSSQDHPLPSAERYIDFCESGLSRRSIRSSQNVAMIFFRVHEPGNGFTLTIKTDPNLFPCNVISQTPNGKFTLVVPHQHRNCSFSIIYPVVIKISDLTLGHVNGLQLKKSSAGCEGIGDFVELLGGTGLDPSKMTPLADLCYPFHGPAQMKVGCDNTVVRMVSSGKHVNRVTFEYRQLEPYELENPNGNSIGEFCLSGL

[11] = target: Tyrosine-protein phosphatase non-receptor type 12 (Homo sapiens, UniProt Q05209); assay: SAR Selectivity Analysis of small molecule inhibitors of PEST using pCAP in a fluorescence assay. [Related pubchem assays (depositor defined):AID1779, AID1784, AID2135]; type: functional
[12] = target: T5, Dual specificity protein phosphatase 3 (Homo sapiens, UniProt P51452); assay: SAR VHR1 absorbance Assay for In Vitro dose response studies. [Related pubchem assays (depositor defined):AID1654, AID1661, AID1878, AID1992, AID2004]
[13] = target: T5, Dual specificity protein phosphatase 3; assay: SAR VHR1 Fluorescent Assay for In Vitro dose response studies. [Related pubchem assays (depositor defined):AID1654, AID1661, AID1878, AID1992, AID2004, AID2070, AID2085]; type: functional
[14] = target: T3, Tyrosine-protein phosphatase non-receptor type 22; assay: SAR LYP1 Fluorescent Assay using OMFP substrate for In Vitro dose response studies - Set 3. [Related pubchem assays (depositor defined):AID1779, AID1784, AID2140, AID2686]; type: functional
[15] = target: T5, Dual specificity protein phosphatase 3; assay: MOA VHR1 Fluorescent secondary assay for identification of redox-state modulating compounds. [Related pubchem assays (depositor defined):AID1654, AID1661, AID1878, AID1957]
[16] = target: T6, Tyrosine-protein phosphatase non-receptor type 7 (Homo sapiens, UniProt P35236); assay: redox-dependent HePTP inhibition, mechanism study, biochemical, fluorescence (AID 2068); type: functional
T6 sequence (P35236 whole entry): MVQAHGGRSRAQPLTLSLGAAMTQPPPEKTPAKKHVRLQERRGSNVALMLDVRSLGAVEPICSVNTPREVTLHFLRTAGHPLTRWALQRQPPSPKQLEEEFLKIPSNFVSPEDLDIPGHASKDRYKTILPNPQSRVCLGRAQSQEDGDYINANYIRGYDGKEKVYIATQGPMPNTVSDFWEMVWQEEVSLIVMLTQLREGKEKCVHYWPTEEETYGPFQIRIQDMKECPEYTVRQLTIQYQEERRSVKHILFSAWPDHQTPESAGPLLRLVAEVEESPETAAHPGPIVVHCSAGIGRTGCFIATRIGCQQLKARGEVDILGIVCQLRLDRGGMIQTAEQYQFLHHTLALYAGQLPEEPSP

[17] = target: T6, Tyrosine-protein phosphatase non-receptor type 7; assay: HePTP (PTPN7) phosphatase inhibitor potency, SAR follow-up, biochemical, set 2 (AID 449736); type: functional
[18] = target: T3, Tyrosine-protein phosphatase non-receptor type 22; assay: LYP (PTPN22) phosphatase inhibitor potency, SAR follow-up, biochemical, pCAP fluorogenic substrate, fluorescence, set 3 (AID 449727); type: functional
[19] = target: T7, Dual specificity protein phosphatase 6 (Rattus norvegicus, UniProt Q64346); type: functional;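 further: confirmatory in vitro dose-response testing of MKP-3 inhibition; recombinant His-tagged MKP-3 made in E. coli BL21 with OMFP substrate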
T7 sequence (Q64346 whole entry): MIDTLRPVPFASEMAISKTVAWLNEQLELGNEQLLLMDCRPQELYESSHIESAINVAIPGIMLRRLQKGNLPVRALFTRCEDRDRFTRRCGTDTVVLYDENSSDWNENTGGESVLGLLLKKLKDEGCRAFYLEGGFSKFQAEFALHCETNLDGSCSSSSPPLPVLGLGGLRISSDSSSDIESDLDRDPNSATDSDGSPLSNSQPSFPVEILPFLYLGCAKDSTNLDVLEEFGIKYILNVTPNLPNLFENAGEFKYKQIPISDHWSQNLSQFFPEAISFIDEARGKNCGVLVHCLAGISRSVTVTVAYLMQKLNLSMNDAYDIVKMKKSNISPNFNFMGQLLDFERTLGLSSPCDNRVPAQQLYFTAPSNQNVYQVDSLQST

[20] = target: T8, Small ubiquitin-related modifier 1 (Homo sapiens, UniProt P63165); assay: inhibitors of SUMO1 peptide binding, dose response, biochemical, fluorescence polarization, uHTS hits (AID 624382); type: functional; conditions: read-out: IC50_Mean
[21] = target: T8, Small ubiquitin-related modifier 1; assay: inhibitors of SUMO1 partner interactions, dose response, biochemical, FRET (AID 624383); type: functional; conditions: read-out: IC50_Mean

T5 sequence (P51452 whole entry): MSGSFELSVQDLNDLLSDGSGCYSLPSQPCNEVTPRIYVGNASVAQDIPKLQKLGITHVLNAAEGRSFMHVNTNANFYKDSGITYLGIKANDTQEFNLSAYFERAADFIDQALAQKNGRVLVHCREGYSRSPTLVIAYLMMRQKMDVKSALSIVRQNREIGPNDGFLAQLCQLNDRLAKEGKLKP
T8 sequence (P63165 whole entry): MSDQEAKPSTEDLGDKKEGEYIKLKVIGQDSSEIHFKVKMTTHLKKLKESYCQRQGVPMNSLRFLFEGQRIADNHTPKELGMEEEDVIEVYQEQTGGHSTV
Sequence of Metabotropic glutamate receptor 4 (P31423 whole entry, the tested form may be a part): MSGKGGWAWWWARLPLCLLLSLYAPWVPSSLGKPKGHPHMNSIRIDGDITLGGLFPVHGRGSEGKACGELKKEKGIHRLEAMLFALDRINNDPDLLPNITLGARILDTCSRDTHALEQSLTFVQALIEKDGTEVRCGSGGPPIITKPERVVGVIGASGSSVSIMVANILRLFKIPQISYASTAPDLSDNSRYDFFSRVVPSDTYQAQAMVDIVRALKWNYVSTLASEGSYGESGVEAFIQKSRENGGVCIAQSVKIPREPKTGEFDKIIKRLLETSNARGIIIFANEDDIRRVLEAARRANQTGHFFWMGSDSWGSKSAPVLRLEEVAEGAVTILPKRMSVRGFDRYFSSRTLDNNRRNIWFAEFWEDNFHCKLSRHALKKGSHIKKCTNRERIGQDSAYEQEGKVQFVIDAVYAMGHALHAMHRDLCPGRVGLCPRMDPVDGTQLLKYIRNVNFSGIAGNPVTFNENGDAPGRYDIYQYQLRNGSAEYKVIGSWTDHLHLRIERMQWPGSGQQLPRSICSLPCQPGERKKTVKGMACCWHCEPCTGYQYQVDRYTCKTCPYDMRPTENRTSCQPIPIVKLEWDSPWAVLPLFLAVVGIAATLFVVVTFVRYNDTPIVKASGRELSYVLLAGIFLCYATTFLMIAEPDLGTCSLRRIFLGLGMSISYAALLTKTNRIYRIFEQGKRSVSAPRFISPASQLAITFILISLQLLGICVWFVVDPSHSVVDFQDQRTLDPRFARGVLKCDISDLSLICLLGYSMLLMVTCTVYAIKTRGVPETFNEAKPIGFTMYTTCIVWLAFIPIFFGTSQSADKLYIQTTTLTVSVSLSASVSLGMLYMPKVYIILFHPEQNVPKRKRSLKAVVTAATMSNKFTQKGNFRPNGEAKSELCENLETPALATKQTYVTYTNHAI
Sequence of Envelope glycoprotein gp160 (Q6QLK5 whole entry, the tested form may be a part): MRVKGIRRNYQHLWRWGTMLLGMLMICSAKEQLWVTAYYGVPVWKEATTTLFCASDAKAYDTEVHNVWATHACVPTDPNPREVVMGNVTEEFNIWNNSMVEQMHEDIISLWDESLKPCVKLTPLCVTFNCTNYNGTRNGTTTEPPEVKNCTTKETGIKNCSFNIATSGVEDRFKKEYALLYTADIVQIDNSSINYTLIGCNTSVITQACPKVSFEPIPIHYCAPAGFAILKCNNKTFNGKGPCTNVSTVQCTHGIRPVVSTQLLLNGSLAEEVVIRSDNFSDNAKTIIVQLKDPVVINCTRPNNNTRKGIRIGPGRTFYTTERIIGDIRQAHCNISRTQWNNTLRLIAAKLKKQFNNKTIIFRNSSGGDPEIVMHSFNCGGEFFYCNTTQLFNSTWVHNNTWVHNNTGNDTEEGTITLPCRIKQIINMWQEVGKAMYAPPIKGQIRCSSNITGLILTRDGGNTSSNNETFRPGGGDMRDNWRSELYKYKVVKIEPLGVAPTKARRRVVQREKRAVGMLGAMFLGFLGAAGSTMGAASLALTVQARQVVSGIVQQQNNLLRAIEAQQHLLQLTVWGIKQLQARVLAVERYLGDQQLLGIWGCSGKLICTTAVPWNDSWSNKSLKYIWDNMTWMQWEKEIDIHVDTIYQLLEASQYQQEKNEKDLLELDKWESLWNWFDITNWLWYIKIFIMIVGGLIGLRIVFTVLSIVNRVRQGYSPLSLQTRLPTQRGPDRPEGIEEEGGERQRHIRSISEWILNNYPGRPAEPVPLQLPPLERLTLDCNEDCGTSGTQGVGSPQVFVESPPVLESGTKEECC
Sequence of Tyrosine-protein phosphatase non-receptor type 12 (Q05209 whole entry): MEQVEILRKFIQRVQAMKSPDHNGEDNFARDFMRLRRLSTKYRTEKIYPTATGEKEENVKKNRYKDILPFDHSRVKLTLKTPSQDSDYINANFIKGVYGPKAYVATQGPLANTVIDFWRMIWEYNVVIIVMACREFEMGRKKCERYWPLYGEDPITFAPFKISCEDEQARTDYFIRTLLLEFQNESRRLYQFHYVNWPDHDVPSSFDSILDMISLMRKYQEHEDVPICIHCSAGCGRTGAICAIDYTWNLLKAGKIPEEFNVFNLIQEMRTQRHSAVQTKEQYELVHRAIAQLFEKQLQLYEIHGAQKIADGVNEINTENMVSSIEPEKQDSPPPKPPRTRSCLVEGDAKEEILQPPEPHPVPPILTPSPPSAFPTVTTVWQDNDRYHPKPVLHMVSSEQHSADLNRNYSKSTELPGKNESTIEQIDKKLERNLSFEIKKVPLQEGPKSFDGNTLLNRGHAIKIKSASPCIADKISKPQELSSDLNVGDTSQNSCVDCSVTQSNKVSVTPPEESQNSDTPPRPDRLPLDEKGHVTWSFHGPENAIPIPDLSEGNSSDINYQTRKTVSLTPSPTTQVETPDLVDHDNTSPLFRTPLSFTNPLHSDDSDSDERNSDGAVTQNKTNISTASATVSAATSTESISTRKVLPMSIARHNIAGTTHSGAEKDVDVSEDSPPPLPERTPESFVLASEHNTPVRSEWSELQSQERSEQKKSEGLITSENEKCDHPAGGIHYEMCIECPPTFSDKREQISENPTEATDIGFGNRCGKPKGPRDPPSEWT
Sequence of Genome polyprotein (P29990 2492-3391 limits assumed): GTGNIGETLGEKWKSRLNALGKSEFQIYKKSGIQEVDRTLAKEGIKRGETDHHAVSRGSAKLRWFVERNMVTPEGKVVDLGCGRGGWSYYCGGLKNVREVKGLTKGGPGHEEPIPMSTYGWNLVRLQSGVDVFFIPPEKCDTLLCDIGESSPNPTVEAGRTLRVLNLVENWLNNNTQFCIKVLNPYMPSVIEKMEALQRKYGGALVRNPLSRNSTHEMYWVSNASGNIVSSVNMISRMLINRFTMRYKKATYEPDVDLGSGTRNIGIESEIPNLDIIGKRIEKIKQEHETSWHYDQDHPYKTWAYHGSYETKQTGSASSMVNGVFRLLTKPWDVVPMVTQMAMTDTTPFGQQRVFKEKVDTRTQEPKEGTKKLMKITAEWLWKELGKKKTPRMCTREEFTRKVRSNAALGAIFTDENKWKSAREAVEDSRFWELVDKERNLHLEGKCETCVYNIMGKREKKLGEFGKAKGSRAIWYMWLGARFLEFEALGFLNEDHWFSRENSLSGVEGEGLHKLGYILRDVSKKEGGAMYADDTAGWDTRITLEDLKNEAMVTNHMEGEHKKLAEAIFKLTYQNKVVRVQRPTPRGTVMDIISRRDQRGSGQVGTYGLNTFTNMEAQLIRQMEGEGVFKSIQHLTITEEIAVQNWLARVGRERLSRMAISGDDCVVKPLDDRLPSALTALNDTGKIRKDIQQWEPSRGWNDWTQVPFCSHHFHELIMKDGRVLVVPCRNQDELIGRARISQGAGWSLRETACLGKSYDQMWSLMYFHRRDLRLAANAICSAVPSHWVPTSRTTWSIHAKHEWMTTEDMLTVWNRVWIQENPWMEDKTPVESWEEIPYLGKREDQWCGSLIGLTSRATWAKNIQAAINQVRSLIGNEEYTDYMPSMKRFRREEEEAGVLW
Sequence of ORF 73 (O40947 whole entry): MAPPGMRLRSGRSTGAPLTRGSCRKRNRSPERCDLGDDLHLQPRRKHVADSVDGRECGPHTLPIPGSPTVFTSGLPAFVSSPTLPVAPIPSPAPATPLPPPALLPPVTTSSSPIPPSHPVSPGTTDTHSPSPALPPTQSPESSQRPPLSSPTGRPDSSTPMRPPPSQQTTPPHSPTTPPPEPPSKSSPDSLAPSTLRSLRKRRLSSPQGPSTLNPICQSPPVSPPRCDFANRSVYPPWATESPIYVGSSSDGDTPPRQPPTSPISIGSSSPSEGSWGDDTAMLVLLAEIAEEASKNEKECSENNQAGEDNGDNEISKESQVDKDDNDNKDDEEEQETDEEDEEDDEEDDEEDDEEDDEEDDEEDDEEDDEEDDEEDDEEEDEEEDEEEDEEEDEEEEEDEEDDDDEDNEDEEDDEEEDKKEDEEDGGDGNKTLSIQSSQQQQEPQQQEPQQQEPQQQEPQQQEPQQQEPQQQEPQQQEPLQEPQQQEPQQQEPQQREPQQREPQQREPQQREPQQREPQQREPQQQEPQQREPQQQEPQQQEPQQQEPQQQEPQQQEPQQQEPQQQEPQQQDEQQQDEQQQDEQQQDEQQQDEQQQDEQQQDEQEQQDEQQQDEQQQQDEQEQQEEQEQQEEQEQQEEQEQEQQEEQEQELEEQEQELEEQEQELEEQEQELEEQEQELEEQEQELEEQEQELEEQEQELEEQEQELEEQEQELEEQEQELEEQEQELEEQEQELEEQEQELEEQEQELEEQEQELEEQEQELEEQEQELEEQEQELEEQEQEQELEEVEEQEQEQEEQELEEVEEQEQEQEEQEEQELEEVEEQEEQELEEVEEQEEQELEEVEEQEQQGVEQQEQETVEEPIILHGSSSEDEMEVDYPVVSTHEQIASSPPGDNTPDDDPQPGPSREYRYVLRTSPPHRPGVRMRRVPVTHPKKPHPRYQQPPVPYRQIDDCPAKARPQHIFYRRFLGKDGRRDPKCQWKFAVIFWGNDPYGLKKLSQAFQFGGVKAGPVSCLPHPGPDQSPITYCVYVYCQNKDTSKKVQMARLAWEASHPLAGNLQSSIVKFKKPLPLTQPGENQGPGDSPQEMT

## CC1(c2ccccc2)CC(=O)N(c2ccc(NC(=O)c3ccccn3)cc2Cl)C1=O (configuration not stated)
[1]
  EC50: 0.54 µM (active)

## Cc1c(CCC(=O)O)c(=O)oc2c(C)c3occ(-c4ccc(Cl)cc4)c3cc12
[2]
  IC50: 15.1 µM (active)
Vero
  CC50: > 40 µM (active)
Genome polyprotein
  IC50: 42.2 µM (active)
[3]
  IC50: 4.89 µM (active)
[4]
  IC50: 19.1 µM (active)
[5]
  IC50: 8.61 µM (active)
[6]
  IC50: 22.4 µM (inactive)

## O=C(OCCN1C(=O)c2cccc3c(N4CCOCC4)ccc(c23)C1=O)c1ccc(Cl)cc1
Cells [7]
  EC50: > 350 µM (not active)
Cells [8]
  EC50: > 350 µM (not active)
ORF 73
  AC50: 29.3 µM (active)
[9]
  IC50: > 80 µM (inactive)
[10]
  EC50: 5.89 µM (active)

## CCOC(=O)C1=C(C)N=c2sc(=Cc3ccc(OCC(=O)O)cc3)c(=O)n2C1c1ccc(SC)cc1 (configuration not stated)
[11]
  IC50: 2.52 µM (active)
[12]
  IC50: 3.14 µM (active)
[13]
  IC50: 7.7 µM (active)
[14]
  IC50: 5.06 µM (active)
[15]
  IC50: 2.01 µM (active)
[16]
  IC50: 0.537 µM (active)
[17]
  IC50: 0.684 µM (active)
[18]
  IC50: 5.14 µM (active)
[19]
  IC50: 18.9 µM (active)
[20]
  IC50: > 66.6 µM (inactive)
[4]
  IC50: 52.8 µM (inactive)
[21]
  IC50: 9.68 µM (active)
[5]
  IC50: 14.6 µM (active)
[6]
  IC50: 16.2 µM (active)

Reference: ChEMBL document CHEMBL1201862, “PubChem BioAssay data set” (2004)
